Assay results published in US9540356B2 (priority 2012, dated 2017).

How the values were obtained:
[1] = test system: retrograde transport of Shiga toxin subunit B (StxB); format: cell-based
HeLa cells [2] = format: cell-based, human
HeLa cells [3] = assay: cells; format: cell-based; settings: Homo sapiens

CN1c2ccccc2C(=O)N(c2ccccc2)C1c1ccc(-c2ccco2)s1 (stereo not drawn) [Compound 40, 2-(5-(Furan-2-yl)thiophen-2-yl)-1-methyl-3-phenyl-2,3-dihydroquinazolin-4(1H)-one]
retrograde transport, % control [1]: 5.3%
R (Stx), protective index (HeLa cells [2]): 27
IC50 (HeLa cells [3]): 1500 nM
